Test results published in patent US20100113465A1, “7-AZASPIRO[3.5]NONANE-7-CARBOXAMIDE COMPOUNDS” (Pfizer Inc., priority 2008, published 2010).

Experiments:
human FAAH = molecular target: T1, human FAAH (Homo sapiens, UniProt O00519); test: FAAH assay, human FAAH enzyme inhibition (kinact/Ki); assay type: biochemical; details: oleamide substrate 50 μM, 30° C., read-out: hFAAH kinact/Ki
T1 construct: made in house; host or cells: E. coli
T1 sequence (O00519 1-579): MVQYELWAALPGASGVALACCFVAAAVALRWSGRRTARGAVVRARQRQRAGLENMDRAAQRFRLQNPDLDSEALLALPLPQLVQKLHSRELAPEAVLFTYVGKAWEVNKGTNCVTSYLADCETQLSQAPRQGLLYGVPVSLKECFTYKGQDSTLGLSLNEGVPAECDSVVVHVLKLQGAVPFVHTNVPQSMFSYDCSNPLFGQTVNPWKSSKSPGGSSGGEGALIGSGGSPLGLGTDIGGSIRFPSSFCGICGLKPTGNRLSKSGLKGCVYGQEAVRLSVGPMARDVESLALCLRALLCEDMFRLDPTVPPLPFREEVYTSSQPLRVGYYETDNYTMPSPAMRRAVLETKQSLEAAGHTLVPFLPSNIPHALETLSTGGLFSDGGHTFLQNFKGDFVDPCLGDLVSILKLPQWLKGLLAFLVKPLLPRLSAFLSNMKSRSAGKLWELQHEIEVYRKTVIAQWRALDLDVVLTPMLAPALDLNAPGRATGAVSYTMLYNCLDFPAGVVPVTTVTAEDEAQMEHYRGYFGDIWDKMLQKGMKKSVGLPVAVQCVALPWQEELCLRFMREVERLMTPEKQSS
Description: (§1) The FAAH assay was carried out in 384-well clear polystyrene plates (Evergreen Scientific) in a total volume of 50 μl per well in a manner similar to that described by Mileni et al., Proc. Nat. Acad. Sci. 2008, 105, 12820-12824. All percents are by volume. Serial dilutions of compound were initially prepared in 100% DMSO, and then diluted two-fold into HPLC-grade H2O to give 50% DMSO. To each well, was placed the reaction mixture (40 μl) containing 1-4 nM FAAH, 50 mM NaPi, pH 7.4, 3 mM α-ketoglutarate, 0.15 mM NADH, 7.5 U/ml glutamate dehydrogenase, 2 mM ADP, 1 mM EDTA, and 0.1% Triton X-100 (The concentration shown for each component is the final concentration in the assay). To this mixture, was added 5 μl of a compound of Examples 1 to 56 at various concentrations in 50% DMSO (or 5 μl 50% DMSO for controls). This was immediately followed by the addition of 5 μl oleamide (500 μM) dissolved in 75% EtOH/25% DMSO and the reaction mixture was mixed for 1.5 min. The final concentrations of DMSO and EtOH in the assay were each 7.5%. The reactions were incubated at 30° C. and the absorbance at 340 nm was collected over a period of 90 min with readings taken in 30-second intervals using SpectraMax Plus^384 Microplate Spectrophotometer (Molecular Devices, Sunnyvale, Calif.). The human FAAH and rat FAAH used in the assay was prepared as described in the patent application WO 2006/067613 using wild-type E. coli cells transformed in St. Louis, Mo., U.S.A. The purity of the enzyme was greater than 98% based on an analysis by SDS-polyacrylamide gel electrophoresis followed by Coomassie Blue staining.
(§2) Reaction progress curves were corrected for the non-enzymatic oxidation of NADH by subtraction of absorbancies at each time point obtained from control reactions containing no FAAH enzyme. The loss of enzyme activity as a function of time is well-described by the following mathematical equation (1) for a mono-exponential decay: […]
(§3) where At represents the absorbance at time t, A0 represents the absorbance at time zero, and C represents a constant. Observed rates of enzyme inactivation (kobs) were determined from the non-linear reaction progress curves by fitting the corrected absorbancies to an equation for a mono-exponential decay using the third-party Microsoft Excel plug-in, XLfit (IDBS Limited). Secondary plots of kobs vs. inhibitor concentration were prepared from kobs values obtained from progress curves. Second-order rates for enzyme inactivation, expressed as kinact/Ki (M^−1s^−1), were calculated from the slopes from linear regression analysis of the secondary plot of kobs vs. inhibitor concentration as defined in following equation (2), where [I]<<Ki:
(§4) The concentration of substrate in the assay was equal to the Km for oleamide of 50 μM. Therefore, reported kinact/Ki values are obtained by multiplying resulting slopes by a factor of two (i.e. slope=kinact/(Ki*2)).

rat FAAH = molecular target: T2, rat FAAH (Rattus norvegicus, UniProt P97612); test: FAAH assay, rat FAAH enzyme inhibition (kinact/Ki); assay type: biochemical; details: oleamide substrate 50 μM, 30° C., read-out: rFAAH kinact/Ki
T2 construct: made in house; host or cells: E. coli
T2 sequence (P97612 1-579): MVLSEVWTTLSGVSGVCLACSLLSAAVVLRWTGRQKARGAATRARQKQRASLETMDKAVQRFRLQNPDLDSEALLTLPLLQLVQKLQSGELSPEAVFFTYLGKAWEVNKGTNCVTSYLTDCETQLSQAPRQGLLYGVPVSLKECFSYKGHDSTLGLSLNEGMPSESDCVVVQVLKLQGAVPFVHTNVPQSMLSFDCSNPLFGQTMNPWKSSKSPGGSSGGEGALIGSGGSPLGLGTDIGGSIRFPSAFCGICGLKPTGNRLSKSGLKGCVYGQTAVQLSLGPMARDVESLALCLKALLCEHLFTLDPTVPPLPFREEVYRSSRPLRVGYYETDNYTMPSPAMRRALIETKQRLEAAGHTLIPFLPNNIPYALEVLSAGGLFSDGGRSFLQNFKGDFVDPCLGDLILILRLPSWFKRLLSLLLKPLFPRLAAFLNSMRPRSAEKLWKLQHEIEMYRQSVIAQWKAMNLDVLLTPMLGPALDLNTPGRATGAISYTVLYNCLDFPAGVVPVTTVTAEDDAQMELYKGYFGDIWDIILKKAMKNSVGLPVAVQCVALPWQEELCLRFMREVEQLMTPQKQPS
Description: as §1, §2, §3, §4

Male Sprague-Dawley Rats = test: In vivo Complete Freund's Adjuvant (CFA) efficacy assay; set-up: species or system rat; key: (+) indicates the test compound was determined to be efficacious at 3 mpk, oral dosing; (−) indicates the test compound was determined to not be efficacious at 3 mpk, oral dosing; details: 3 mpk, oral dosing; inhibition of allodynia (PWT) four hours postdose vs vehicle, p<0.05
Description: For additional information on the CFA efficacy assay, see Jayamanne et al., Brit. J. Pharmacol. 2006, 147, 281-288. Experiments were performed on adult Male Sprague-Dawley Rats (200 g-250 g). Inflammation was induced in the left hindpaw of the rat by an intra-plantar injection of 150 uL Complete Freund's Adjuvant (CFA) (SIGMA F5881). The CFA injection immediately induces local inflammation, paw swelling, and pain that persists for at least two weeks post-injection. Baseline paw withdrawal threshold (PWT) was measured to determine the percent inhibition of allodynia using a set of Von Frey Hairs on day 4 post injection as illustrated by the Dixon Up and Down Method (W. J. Dixon, Ann. Rev. Pharmacol. Toxicol. 1980, 20:441-462). […] Test compound was administered at a concentration of 3 mg/kg (mpk) orally with the dosing vehicle 5% N,N′-Dimethylacetamide (SIGMA D137510) and 95% (40% 2-hydroxypropyl-beta-cyclodextrin in water) (SIGMA H107). Following Dose administration PWT threshold was evaluated again at four hours postdose. The Sprague-Dawley rats used in this assay were purchased from Harlan, 8520 Allison Pointe Blvd., Indianapolis, Ind., 46250, U.S.A. Sprague-Dawley rats are an outbred breed of albino rats first produced by the Sprague Dawley farms in Madison, Wis., U.S.A.
Percent Inhibition of Allodynia was determined by the formula: […]
ΔPWT measurements were averaged for each treatment group and statistical comparisons between groups were made using ANOVA and Dunnett's two-tailed test. […]

| kinact/KI (human FAAH) [M⁻¹ s⁻¹] | kinact/KI (rat FAAH) [M⁻¹ s⁻¹] | SMILES | CFA Efficacy (Male Sprague-Dawley Rats) |
| --- | --- | --- | --- |
| 4480 | 1700 | Cc1noc(NC(=O)N2CCC3(CC2)CC(c2cccc(OCCOc4ccccc4)c2)C3)c1C [Example 26, N-(3,4-dimethylisoxazol-5-yl)-2-[3-(2-phenoxyethoxy)phenyl]-7-azaspiro[3.5]nonane-7-carboxamide] | (+) |
| 2940 | 1810 | Cc1noc(NC(=O)N2CCC3(CC2)CC(c2cccc(OCCOc4ccccc4Cl)c2)C3)c1C [Example 27, 2-{3-[2-(2-chlorophenoxy)ethoxy]phenyl}-N-(3,4-dimethylisoxazol-5-yl)-7-azaspiro[3.5]nonane-7-carboxamide] | (+) |
| 2220 | 1060 | Cc1noc(NC(=O)N2CCC3(CC2)CC(c2cccc4c2OC(F)(F)O4)C3)c1C [Example 28, 2-(2,2-difluoro-1,3-benzodioxol-4-yl)-N-(3,4-dimethylisoxazol-5-yl)-7-azaspiro[3.5]nonane-7-carboxamide] | (+) |
| 3840 | 2470 | Cc1noc(NC(=O)N2CCC3(CC2)CC(c2cccc(Cl)c2F)C3)c1C [Example 29, 2-(3-chloro-2-fluorophenyl)-N-(3,4-dimethylisoxazol-5-yl)-7-azaspiro[3.5]nonane-7-carboxamide] | (+) |
| 3240 | 2340 | Cc1noc(NC(=O)N2CCC3(CC2)CC(c2cccc(C(F)(F)F)c2F)C3)c1C [Example 30, N-(3,4-dimethylisoxazol-5-yl)-2-[2-fluoro-3-(trifluoromethyl)phenyl]-7-azaspiro[3.5]nonane-7-carboxamide] | (+) |
| 2830 | 1320 | Cc1noc(NC(=O)N2CCC3(CC2)CC(F)(c2cccc(Cl)c2)C3)c1C [Example 32, 2-(3-chlorophenyl)-N-(3,4-dimethylisoxazol-5-yl)-2-fluoro-7-azaspiro[3.5]nonane-7-carboxamide] | (+) |
| 1600 | 636 | Cc1noc(NC(=O)N2CCC3(CC2)CC(c2noc(-c4ccc(C(F)(F)F)cc4)n2)C3)c1C [Example 33, N-(3,4-dimethylisoxazol-5-yl)-2-{5-[4-(trifluoromethyl)phenyl]-1,2,4-oxadiazol-3-yl}-7-azaspiro[3.5]nonane-7-carboxamide] | (+) |
| 1650 | 1660 | CCc1noc(NC(=O)N2CCC3(CC2)CC(c2cccc(OC(F)(F)F)c2)C3)c1C [Example 34, N-(3-ethyl-4-methylisoxazol-5-yl)-2-[3-(trifluoromethoxy)phenyl]-7-azaspiro[3.5]nonane-7-carboxamide] | (+) |
| 2030 | 1160 | Cc1noc(NC(=O)N2CCC3(CC2)CC(c2csc(-c4cccc(C(F)(F)F)c4)n2)C3)c1C [Example 36, N-(3,4-dimethylisoxazol-5-yl)-2-{2-[3-(trifluoromethyl)phenyl]-1,3-thiazol-4-yl}-7-azaspiro[3.5]nonane-7-carboxamide] | (+) |
| 13200 | 4570 | Cn1nnnc1NC(=O)N1CCC2(CC1)CC(c1cccc(OC(F)(F)F)c1)C2 [Example 45, N-(1-methyl-1H-tetrazol-5-yl)-2-[3-(trifluoromethoxy)phenyl]-7-azaspiro[3.5]nonane-7-carboxamide] | (+) |
| 14100 | 3410 | Cn1nnnc1NC(=O)N1CCC2(CC1)CC(c1cccc(Cl)c1F)C2 [Example 46, 2-(3-chloro-2-fluorophenyl)-N-(1-methyl-1H-tetrazol-5-yl)-7-azaspiro[3.5]nonane-7-carboxamide] | (+) |
| 15400 | 3330 | Cn1nnnc1NC(=O)N1CCC2(CC1)CC(c1cccc(C(F)(F)F)c1F)C2 [Example 47, 2-[2-fluoro-3-(trifluoromethyl)phenyl]-N-(1-methyl-1H-tetrazol-5-yl)-7-azaspiro[3.5]nonane-7-carboxamide] | (+) |
| 16300 | 5940 | Cn1nnnc1NC(=O)N1CCC2(CC1)CC(c1ccc(F)c(Cl)c1)C2 [Example 48, 2-(3-chloro-4-fluorophenyl)-N-(1-methyl-1H-tetrazol-5-yl)-7-azaspiro[3.5]nonane-7-carboxamide] | (+) |
| 5240 | 552 | Cn1nnnc1NC(=O)N1CCC2(CC1)CC(c1noc(-c3ccc(C(F)(F)F)cc3)n1)C2 [Example 49, N-(1-methyl-1H-tetrazol-5-yl)-2-{5-[4-(trifluoromethyl)phenyl]-1,2,4-oxadiazol-3-yl}-7-azaspiro[3.5]nonane-7-carboxamide] | (+) |
